Read-outs that look alike come from different tables or passages of the source.
Legend:
[1] = Cytotoxicity in HeLa cells without addition of OC43 virus (in parallel); conditions: human, HeLa cells, without OC43 virus
in vitro = conditions: human
[2] = test system: human beta-coronavirus OC43; experiment: OC43 Coronavirus Assay in HeLa cells (antiviral, cytopathic effect, cell-titer-glo); type: cell-based; conditions: Betacoronavirus 1, OC43, HeLa
[3] = test system: SARS-CoV-2 B.1.1.7 lineage; experiment: microbe, parasite or virus in culture; type: cell-based; conditions: Severe acute respiratory syndrome coronavirus 2, Table C, SARS-CoV-2 B.1.1.7 in A549-dual_ACE2_TMPRSS2 cells, read-out: A549-dual_ACE2_TMPRSS2 (EC50)
SARS-Cov-2 3CLpro = SARS-Cov-2 3CLpro (Severe acute respiratory syndrome coronavirus 2, UniProt P0DTD1); experiment: biochemical; conditions: Table A, class symbols, read-out: SARS-Cov-2 (IC50)
[4] = Table B, OC43 coronavirus in HeLa cells, cells given as a bound, read-out: EC50
[5] = Table B, OC43 coronavirus in HeLa cells, class symbols, read-out: EC50

Compound	CC50 at 6 days [1]	CC50 (in vitro)	EC50 [2, 4]	EC50 ([3]; cells given as a bound)	IC50 (SARS-Cov-2 3CLpro)	EC50 [2, 5]	EC50 ([3]; class symbols)	EC50 [2]
Cc1nnn(C(CC2CC2)C(=O)N(C)[C@@H](CC2CC2)C(=O)N2C[C@@]3(C[C@H]2C#N)Oc2cc(F)cc(F)c2NC3=O)c1C (relative stereo) [Compound 117, (S*)—N—((S)-1-((2R,5'S)-5′-cyano-5,7-difluoro-3-oxo-3,4-dihydrospiro[benzo[b][1,4]oxazine-2,3′-pyrrolidin]-1′-yl)-3-cyclopropyl-1-oxopropan-2-yl)-3-cyclopropyl-2-(4,5-dimethyl-1H-1,2,3-triazol-1-yl)-N-methylpropanamide]	> 10 µM	> 1 µM	> 10 µM	> 1 µM	0.2 to 2 µM	–	–	–
CN(C(=O)[C@H](CC1CC1)NC(=O)C(F)(F)F)[C@@H](CC1CC1)C(=O)N1C[C@@]2(C[C@H]1C#N)CC1(CC1)NC2=O [Compound 60]	> 10 µM	> 1 µM	–	–	< 0.02 µM	< 0.1 µM	< 0.1 µM	–
CN(C(=O)[C@H](CC1CC1)NS(=O)(=O)c1ccc(F)cc1)[C@@H](CC1CC1)C(=O)N1C[C@@]2(C[C@H]1C#N)Oc1cccnc1NC2=O [Compound 197]	> 10 µM	> 1 µM	–	–	< 0.02 µM	< 0.1 µM	0.1 to 1 µM	–
CN(C(=O)[C@H](CC1CC1)NC(=O)C(F)(F)F)[C@@H](CC1CC1)C(=O)N1C[C@@]2(C[C@H]1C#N)Oc1cc(F)ccc1CNC2=O [Compound 142]	> 10 µM	> 1 µM	–	–	< 0.02 µM	< 0.1 µM	< 0.1 µM	–
CN(C(=O)[C@H](CC1CCC1)NC(=O)C(F)(F)F)[C@@H](CC1CC1)C(=O)N1C[C@@]2(C[C@H]1C#N)Oc1ncccc1NC2=O [Compound 203]	> 10 µM	> 1 µM	–	–	< 0.02 µM	< 0.1 µM	< 0.1 µM	–
C[C@H](NC(=O)C(F)(F)F)C(=O)N(C)[C@@H](CC1CCC1)C(=O)N1C[C@@]2(C[C@H]1C#N)Oc1cccnc1NC2=O [Compound 165]	> 10 µM	> 1 µM	–	–	< 0.02 µM	< 0.1 µM	< 0.1 µM	–
CN(C(=O)[C@H](CC1CC1)NC(=O)C1(F)CC1)[C@@H](CC1CC1)C(=O)N1C[C@@]2(CC1C#N)Oc1ccccc1CNC2=O (stereo partly shown) [Compound 176]	> 10 µM	> 1 µM	–	–	< 0.02 µM	< 0.1 µM	< 0.1 µM	–
CC(C)C[C@@H](C(=O)N1C[C@@]2(C[C@H]1C#N)Oc1ccncc1NC2=O)N(C)C(=O)c1cc2c(F)cc(F)cc2[nH]1 [Example 3, N—((S)-1-((2R,5'S)-5′-cyano-3-oxo-3,4-dihydrospiro[pyrido[4,3-b][1,4]oxazine-2,3′-pyrrolidin]-1′-yl)-4-methyl-1-oxopentan-2-yl)-4,6-difluoro-N-methyl-1H-indole-2-carboxamide]	> 10 µM	> 1 µM	> 1 µM	–	0.02 to 0.2 µM	–	1 to 10 µM	–
C[C@H](NC(=O)C(F)(F)F)C(=O)N(C)[C@@H](CC1CC1)C(=O)N1C[C@@]2(C[C@H]1C#N)Oc1ccccc1NC2=O [Compound 160]	> 10 µM	> 1 µM	–	–	< 0.02 µM	< 0.1 µM	< 0.1 µM	–
CN(C(=O)[C@H](CC1CC1)NS(=O)(=O)C1(C)CC1)[C@@H](CC1CC1)C(=O)N1C[C@@]2(C[C@H]1C#N)Oc1cccnc1NC2=O [Compound 198]	> 10 µM	> 1 µM	–	–	< 0.02 µM	< 0.1 µM	0.1 to 1 µM	–
CC(C)C[C@@H](C(=O)N1C[C@]2(C[C@H]1C#N)OC(=O)Nc1ccccc12)N(C)C(=O)c1cc2c(F)cc(F)cc2[nH]1 [Example 5, N—((S)-1-((4R,5'S)-5′-cyano-2-oxo-1,2-dihydrospiro[benzo[d][1,3]oxazine-4,3′-pyrrolidin]-1′-yl)-4-methyl-1-oxopentan-2-yl)-4,6-difluoro-N-methyl-1H-indole-2-carboxamide]	> 10 µM	> 1 µM	> 1 µM	–	0.2 to 2 µM	–	1 to 10 µM	–
COC1CNC(=O)[C@]12C[C@@H](C#N)N(C(=O)[C@H](CC1CC1)N(C)C(=O)[C@H](CC1CC1)NC(=O)C(F)(F)F)C2 (stereo partly drawn) [Compound 225, (2S)—N-((2S)-1-((3S,5S)-3-cyano-9-methoxy-6-oxo-2,7-diazaspiro[4.4]nonan-2-yl)-3-cyclopropyl-1-oxopropan-2-yl)-3-cyclopropyl-N-methyl-2-(2,2,2-trifluoroacetamido)propanamide]	> 10 µM	> 1 µM	–	–	0.02 to 0.2 µM	0.1 to 1 µM	0.1 to 1 µM	–
CN(C(=O)[C@@H]1CCN(C(=O)C(F)(F)F)C1)[C@@H](CC1CC1)C(=O)N1C[C@@]2(C[C@H]1C#N)Oc1cc(F)cc(F)c1NC2=O [Compound 128]	> 10 µM	> 1 µM	–	–	0.2 to 2 µM	–	0.1 to 1 µM	> 10 µM
CN(C(=O)[C@H](CC1CC1)NC(=O)C(F)(F)F)[C@@H](CC1CC1)C(=O)N1C[C@@]2(C[C@H]1C#N)Oc1ccccc1C1(CC1)NC2=O [Compound 113]	> 10 µM	> 1 µM	–	> 1 µM	0.02 to 0.2 µM	0.1 to 1 µM	–	–
C[C@H](NC(=O)C(F)(F)F)C(=O)N(C)[C@@H](CC(C)(C)F)C(=O)N1C[C@@]2(C[C@H]1C#N)Oc1cc(F)cc(F)c1NC2=O [Compound 61]	> 10 µM	> 1 µM	–	–	< 0.02 µM	1 to 10 µM	0.1 to 1 µM	–
C[C@H](NC(=O)C(F)(F)F)C(=O)N(C)[C@@H](CC1CC1)C(=O)N1C[C@@]2(C[C@H]1C#N)Oc1ncccc1NC2=O [Compound 209]	> 10 µM	> 1 µM	–	–	< 0.02 µM	< 0.1 µM	0.1 to 1 µM	–
CC(C)C[C@@H](C(=O)N1C[C@@]2(C[C@H]1C#N)Oc1cc(F)cc(F)c1NC2=O)N(C)C(=O)[C@H](CC(C)(C)F)NC(=O)C(F)(F)F [Compound 64]	> 10 µM	> 1 µM	–	–	< 0.02 µM	< 0.1 µM	0.1 to 1 µM	–
C[C@H](NC(=O)C(F)(F)F)C(=O)N(C)[C@H](C(=O)N1C[C@@]2(C[C@H]1C#N)Oc1cc(F)cc(F)c1NC2=O)[C@@H](C)OC(C)(C)C [Compound 154]	> 10 µM	> 1 µM	–	> 1 µM	0.2 to 2 µM	1 to 10 µM	–	–
CC(C)C[C@@H](C(=O)N1C[C@@]2(C[C@H]1C#N)Oc1ccccc1NC2=O)N(C)C(=O)c1cc2c(F)cc(F)cc2[nH]1 [Example 2, N—((S)-1-((2R,5'S)-5′-cyano-3-oxo-3,4-dihydrospiro[benzo[b][1,4]oxazine-2,3′-pyrrolidin]-1′-yl)-4-methyl-1-oxopentan-2-yl)-4,6-difluoro-N-methyl-1H-indole-2-carboxamide]	> 10 µM	> 1 µM	–	–	< 0.02 µM	0.1 to 1 µM	0.1 to 1 µM	–
CC(C)C[C@@H](C(=O)N1C[C@]2(Cc3ccccc3NC2=O)C[C@H]1C#N)N(C)C(=O)[C@H](C)NC(=O)C(F)(F)F [Example 32, (S)—N—((S)-1-((3S,5S)-5-cyano-2′-oxo-1′,4′-dihydro-2′H-spiro[pyrrolidine-3,3′-quinolin]-1-yl)-4-methyl-1-oxopentan-2-yl)-N-methyl-2-(2,2,2-trifluoroacetamido)propanamide]	> 10 µM	> 1 µM	–	–	< 0.02 µM	1 to 10 µM	0.1 to 1 µM	–
CC(C)C[C@@H](C(=O)N1C[C@]2(CC(c3ccccc3)NC2=O)C[C@H]1C#N)N(C)C(=O)[C@H](C)NC(=O)C(F)(F)F (stereo partly shown) [Compound 24]	> 10 µM	> 1 µM	–	–	< 0.02 µM	1 to 10 µM	0.1 to 1 µM	–
CN(C(=O)[C@H](CC1CC1)NC(=O)C(F)(F)F)[C@@H](CC1CC1)C(=O)N1C[C@@]2(C[C@H]1C#N)Oc1ccc(F)c(F)c1NC2=O [Compound 52]	> 10 µM	> 1 µM	–	–	< 0.02 µM	< 0.1 µM	< 0.1 µM	–
CC(C)C[C@@H](C(=O)N1C[C@]2(C[C@H]1C#N)C(=O)Nc1ccnn12)N(C)C(=O)[C@H](C)NC(=O)C(F)(F)F [Example 45, (2S)—N-[(2S)-1-[(3R,5'S)-5′-cyano-2-oxo-1H-spiro[pyrazolo[1,5-a]imidazole-3,3′-pyrrolidin]-1′-yl]-4-methyl-1-oxopentan-2-yl]-N-methyl-2-(2,2,2-trifluoroacetamido)propanamide]	> 10 µM	> 1 µM	–	> 1 µM	0.02 to 0.2 µM	0.1 to 1 µM	–	–
C[C@H](NC(=O)C(F)(F)F)C(=O)N(C)[C@@H](CC1CC1)C(=O)N1C[C@@]2(C[C@H]1C#N)Oc1cccnc1NC2=O [Compound 84]	> 10 µM	> 1 µM	–	–	< 0.02 µM	1 to 10 µM	< 0.1 µM	–
CC(C)C[C@@H](C(=O)N1C[C@@]2(CC1C#N)Oc1cc(F)cc(F)c1NC2=O)N(C)C(=O)[C@H](C)NC(=O)C(F)(F)F (stereo partly shown) [Compound 51]	> 10 µM	> 1 µM	–	–	< 0.02 µM	0.1 to 1 µM	0.1 to 1 µM	–
CC[C@H](NC(=O)C(F)(F)F)C(=O)N(C)[C@@H](CC1CC1)C(=O)N1C[C@@]2(C[C@H]1C#N)Oc1cc(F)cc(F)c1NC2=O [Compound 88]	> 10 µM	> 1 µM	–	–	< 0.02 µM	0.1 to 1 µM	< 0.1 µM	–

Reference: patent US20240199647A1, “ANTI-VIRAL COMPOUNDS” (Aligos Therapeutics, Inc., priority 2022, published 2024)
